Laboratory results as given in publication PMC6689897, “Drugging an undruggable pocket on KRAS” (Proceedings of the National Academy of Sciences of the …, 2019).

Assays:
NCI-H358 cells = test: pAKT quantification (Meso Scale Discovery); assay type: cell-based, human
Experimental: (§1) 217 The coordinates and structure factors of the structures have been deposited at the
(§2) 218 Protein Data Bank with the accession codes PDB Code 6GJ5, 6GJ6, 6GJ7, 6GJ8.
(§3) 221 Measurements of various protein–protein interactions were performed using the Alpha
(§4) 222 Screen technology developed by Perkin Elmer. Recombinant RAS proteins (H-, N-, K-
(§5) 223 RAS variants; all KRAS variants are based on KRAS isoform 4B (uniprot id P01116-2);
(§6) 224 KRAS (G12D) 1-169, N-terminal 6His-tag, C-terminal avi-tag was from Xtal
(§7) 225 BioStructures, Inc., KRAS (G12C) 1-169, C-terminal avi-tag, biotinylated, mutations:
(§8) 226 C51S, C80L, C118S, NRAS(wt) 1-172, C-terminal avi-tag, biotinylated; HRAS(wt) 1-
(§9) 227 166, C-terminal avi-tag, biotinylated). Biotinylation was performed in vitro with
228 recombinant BirA biotin-protein ligase as recommended by the manufacturer (Avidity […]
(§10) 231 PI3KA- RBD (160-317, N-term-HIS_GST-tag) were expressed as glutathione S […]
(§11) 245 for 60 min in the dark at room temperature. Single oxygen induced fluorescence was
(§12) 246 measured at an Enspire multimode plate reader (Perkin Elmer) according to the
(§13) 247 manufacturer’s recommendations. Data were analyzed using the GraphPad Prism data […]
313 added according to manufacturer’s instructions. Fluorescence intensity was determined
314 using a fluorescence reader (2030 VICTOR X5, Perkin Elmer). […]
319 MAPK pathway signaling (pERK, pAKT quantification) […]

[1] = system: 4 BRAF(v600E) cell lines (A375, RKO, Colo 201, SK-MEL-28); test: 2D and 3D proliferation in BRAF V600E control cell lines; assay type: cell-based, human; conditions: low serum, soft agar, or high serum, adherent conditions
Experimental: as §1, §2, §3, §4, §5, §6, §7, §8, §9
228 recombinant BirA biotin-protein ligase as recommended by the manufacturer (Avidity
229 LLC, Aurora, Colorado, USA). Interacting proteins such as SOS1 (564-1049, N-terminal […]
as §10, §11, §12, §13
275 IgG secondary antibody (Dako #P0448) and detected with ECL (GE Healthcare Life […]

## Cn1cnc(Cn2ccc3ccc(CNCc4[nH]c5ccccc5c4[C@H]4NC(=O)c5ccc(O)cc54)cc32)c1 [Compound 1]
NCI-H358 cells; high serum conditions
  pAKT levels: no reduction of pAKT levels
NCI-H358 cells; starved 24 h low serum, 2 h compound, then EGF
  pAKT levels: dose-dependently reduced
[1]
  antiproliferative effect: No antiproliferative effect
